Measurements published in PMC7932521, “2-aminobenzimidazoles for leishmaniasis: From initial hit discovery to in vivo profiling” (PLoS Neglected Tropical Diseases, 2021).
pEC50, pIC50: −log10 of the molar value.

Columns and labels:
M2 [1] = molecular target: T1, M2 (Homo sapiens, UniProt P08172); test: Bioprofiling 6pt Ag M2 CHO; type: cell-based; details: agonist readout
T1 construct: expressed in transfected cells; host or cells: CHO
T1 sequence (P08172 1-466): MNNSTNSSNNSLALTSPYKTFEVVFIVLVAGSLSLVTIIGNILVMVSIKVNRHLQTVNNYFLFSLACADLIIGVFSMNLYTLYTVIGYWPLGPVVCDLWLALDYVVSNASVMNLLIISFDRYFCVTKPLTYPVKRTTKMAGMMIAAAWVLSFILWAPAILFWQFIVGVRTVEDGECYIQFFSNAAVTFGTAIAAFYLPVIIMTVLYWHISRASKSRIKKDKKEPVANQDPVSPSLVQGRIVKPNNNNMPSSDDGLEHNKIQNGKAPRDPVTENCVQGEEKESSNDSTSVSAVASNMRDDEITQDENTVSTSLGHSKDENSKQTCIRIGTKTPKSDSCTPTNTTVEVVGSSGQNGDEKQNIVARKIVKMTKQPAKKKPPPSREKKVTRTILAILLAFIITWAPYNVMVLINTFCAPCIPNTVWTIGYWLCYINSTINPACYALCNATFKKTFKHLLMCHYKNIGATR
Procedure: (§1) The compounds were evaluated across a panel of 20 liability targets (37 functional assays) which included functional cell-based GPCRs and ion channels in both agonist and antagonist readout, measuring calcium flux and biochemical functional assays for nuclear hormone receptors and phosphodiesterases using TR-FRET format, in a 6 point 1:3 dilution dose series (maximum final concentration of 10 μM).

M2 [2] = molecular target: T1, M2; test: Bioprofiling 6pt Antag M2 CHO; type: cell-based; details: antagonist readout vs Carbachol
Procedure: as §1

Alpha2A = molecular target: T2, Alpha2A (Homo sapiens, UniProt P08913); test: Bioprofiling 6pt Ag Alpha2A CHO; type: cell-based; details: agonist readout
T2 construct: expressed in transfected cells; host or cells: CHO
T2 sequence (P08913 1-465): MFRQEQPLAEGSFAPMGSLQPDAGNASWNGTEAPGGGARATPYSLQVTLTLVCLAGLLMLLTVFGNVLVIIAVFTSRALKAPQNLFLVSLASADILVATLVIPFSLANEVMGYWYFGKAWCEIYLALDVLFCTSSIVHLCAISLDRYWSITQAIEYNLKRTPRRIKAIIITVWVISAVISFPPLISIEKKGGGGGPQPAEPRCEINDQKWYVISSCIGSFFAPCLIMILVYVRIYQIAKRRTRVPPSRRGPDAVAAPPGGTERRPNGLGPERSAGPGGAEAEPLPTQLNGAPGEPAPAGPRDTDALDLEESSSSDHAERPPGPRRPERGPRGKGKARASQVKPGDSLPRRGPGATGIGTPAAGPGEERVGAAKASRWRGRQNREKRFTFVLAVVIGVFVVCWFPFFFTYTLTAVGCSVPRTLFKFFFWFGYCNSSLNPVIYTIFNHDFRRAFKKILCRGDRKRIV
Procedure: as §1

H1 = molecular target: T3, H1 (Homo sapiens, UniProt P35367); test: Bioprofiling 6pt Antag H1 CHO; type: cell-based; details: antagonist readout vs Histamine
T3 construct: expressed in transfected cells; host or cells: CHO
T3 sequence (P35367 whole entry): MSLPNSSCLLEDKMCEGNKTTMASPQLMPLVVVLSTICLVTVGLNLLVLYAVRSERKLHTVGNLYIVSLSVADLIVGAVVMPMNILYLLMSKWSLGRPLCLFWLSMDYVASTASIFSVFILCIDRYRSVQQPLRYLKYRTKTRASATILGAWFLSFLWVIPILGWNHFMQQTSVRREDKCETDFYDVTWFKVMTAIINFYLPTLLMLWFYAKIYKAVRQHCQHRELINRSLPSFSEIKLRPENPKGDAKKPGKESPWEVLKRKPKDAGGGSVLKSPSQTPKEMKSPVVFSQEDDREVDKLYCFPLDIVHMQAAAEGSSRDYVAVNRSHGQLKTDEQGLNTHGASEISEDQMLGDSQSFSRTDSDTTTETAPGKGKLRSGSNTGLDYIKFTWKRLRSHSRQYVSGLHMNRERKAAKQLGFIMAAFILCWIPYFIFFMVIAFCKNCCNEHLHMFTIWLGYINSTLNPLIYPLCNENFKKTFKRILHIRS
Procedure: as §1

Opioid mu = molecular target: T4, Opioid mu (Homo sapiens, UniProt P35372); test: Bioprofiling 6pt Antag Opioid mu CHO; type: cell-based; details: antagonist readout vs DAMGO
T4 construct: expressed in transfected cells; host or cells: CHO
T4 sequence (P35372 whole entry): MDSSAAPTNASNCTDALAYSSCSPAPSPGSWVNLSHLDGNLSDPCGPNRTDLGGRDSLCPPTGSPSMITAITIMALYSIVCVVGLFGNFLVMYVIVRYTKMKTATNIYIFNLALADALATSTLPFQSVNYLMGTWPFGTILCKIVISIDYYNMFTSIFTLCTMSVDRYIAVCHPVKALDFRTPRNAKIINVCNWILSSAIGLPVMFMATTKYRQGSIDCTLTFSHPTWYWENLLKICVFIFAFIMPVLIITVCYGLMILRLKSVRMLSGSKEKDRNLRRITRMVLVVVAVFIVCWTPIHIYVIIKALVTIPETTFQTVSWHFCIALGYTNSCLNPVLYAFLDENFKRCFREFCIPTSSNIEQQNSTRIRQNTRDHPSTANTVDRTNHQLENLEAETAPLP
Procedure: as §1

PDE3A = PDE3A (Homo sapiens, UniProt Q14432); test: Bioprofiling 6pt Antag PDE3A; type: biochemical; details: substrate cAMP
Sequence of PDE3A (Q14432 whole entry): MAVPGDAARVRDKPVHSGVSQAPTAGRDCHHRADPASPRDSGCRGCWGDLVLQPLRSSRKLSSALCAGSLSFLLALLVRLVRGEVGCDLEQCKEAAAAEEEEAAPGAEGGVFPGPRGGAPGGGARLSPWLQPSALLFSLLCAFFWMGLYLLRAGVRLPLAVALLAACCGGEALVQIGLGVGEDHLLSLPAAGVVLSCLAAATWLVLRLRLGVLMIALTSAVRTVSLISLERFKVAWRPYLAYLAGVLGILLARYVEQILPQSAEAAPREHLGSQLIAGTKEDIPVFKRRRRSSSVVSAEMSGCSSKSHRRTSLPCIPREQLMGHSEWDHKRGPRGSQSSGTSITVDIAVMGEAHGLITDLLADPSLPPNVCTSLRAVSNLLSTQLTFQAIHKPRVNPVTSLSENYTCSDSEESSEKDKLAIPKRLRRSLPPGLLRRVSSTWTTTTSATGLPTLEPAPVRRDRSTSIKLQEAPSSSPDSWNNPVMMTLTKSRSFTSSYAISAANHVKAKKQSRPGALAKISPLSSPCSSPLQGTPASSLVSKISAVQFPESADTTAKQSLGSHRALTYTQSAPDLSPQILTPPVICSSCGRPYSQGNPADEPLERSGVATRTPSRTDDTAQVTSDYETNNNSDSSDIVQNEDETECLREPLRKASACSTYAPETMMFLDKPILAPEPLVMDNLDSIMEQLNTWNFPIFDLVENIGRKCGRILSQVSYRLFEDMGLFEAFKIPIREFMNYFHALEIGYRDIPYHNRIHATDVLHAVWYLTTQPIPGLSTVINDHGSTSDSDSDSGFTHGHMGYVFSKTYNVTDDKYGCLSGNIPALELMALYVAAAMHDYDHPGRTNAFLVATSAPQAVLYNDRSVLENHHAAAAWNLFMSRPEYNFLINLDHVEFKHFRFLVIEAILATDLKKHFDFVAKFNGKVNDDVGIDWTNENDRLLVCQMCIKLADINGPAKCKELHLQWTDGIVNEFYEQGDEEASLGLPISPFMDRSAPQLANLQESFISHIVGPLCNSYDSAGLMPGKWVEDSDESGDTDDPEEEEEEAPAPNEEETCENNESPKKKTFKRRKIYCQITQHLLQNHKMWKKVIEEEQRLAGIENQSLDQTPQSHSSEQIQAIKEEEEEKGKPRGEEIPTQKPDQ
Procedure: as §1

Plasma stability = type: in vitro ADME, mouse; details: for Mouse plasma stability: % remaining after 6h; for Plasma Stability: S1 Data
Procedure: Pooled plasma was thawed in a water bath at 37°C and centrifuged at 4,000 rpm for 5 min to remove any clots. Plasma solution was prepared by adding PBS (pH 7.4) in a 1:1 ratio. It was not necessary to adjust the pH of the final plasma solution. Plasma:PBS and test compound solutions were added to the incubation plate at a final concentration of 2 μM. The plate was incubated in a shaker at 37°C and 50 rpm. Samples were removed (25 μL) from each well of the incubation plate at multiple timepoints and added to a plate containing 100 μL of quench solution (200 ng/mL tolbutamide in 50% acetonitrile/methanol) to precipitate protein. The quenched aliquots were centrifuged at 4000 rpm for 10 min at 5°C. An aliquot of supernatant was transferred from each well to a plate for analysis by LC-MS/MS. Results were calculated as the percentage of remaining parent compound in plasma after incubation.

5-HT1A = molecular target: T5, 5-HT1A (Homo sapiens, UniProt P08908); test: Bioprofiling 6pt Antag 5-HT1A CHO; type: cell-based; details: antagonist readout vs 5-Carboxytryptamine (5-CT)
T5 construct: expressed in transfected cells; host or cells: CHO
T5 sequence (P08908 1-422): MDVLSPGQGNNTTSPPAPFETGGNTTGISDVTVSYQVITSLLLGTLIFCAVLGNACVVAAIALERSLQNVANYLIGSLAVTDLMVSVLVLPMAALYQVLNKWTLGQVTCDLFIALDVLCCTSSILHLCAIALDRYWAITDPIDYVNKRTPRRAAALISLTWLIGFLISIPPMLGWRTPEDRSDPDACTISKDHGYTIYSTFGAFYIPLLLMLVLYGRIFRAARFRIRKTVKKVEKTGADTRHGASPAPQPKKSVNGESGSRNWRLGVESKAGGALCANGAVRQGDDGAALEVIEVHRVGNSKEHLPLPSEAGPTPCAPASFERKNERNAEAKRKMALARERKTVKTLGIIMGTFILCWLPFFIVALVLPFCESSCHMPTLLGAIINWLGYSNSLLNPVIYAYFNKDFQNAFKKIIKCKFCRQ
Procedure: as §1

SMILES | pEC50 (M2 [1]) | pIC50 (M2 [2]) | pEC50 (Alpha2A) | pIC50 (H1) | pIC50 (Opioid mu) | pIC50 (PDE3A) | Mouse plasma stability (Plasma stability) | Plasma Stability (Plasma stability) | pIC50 (5-HT1A)
Cn1nccc1C(=O)Nc1nc2ccc(C#N)cc2n1CC(C)(C)C [Compound 29, O=C(Nc1n(CC(C)(C)C)c(c2n1)cc(C#N)cc2)c3n(C)ncc3] | < 5.00 | < 5.00 | < 5.00 | < 5.00 | < 5.00 | < 5.00 | 99.8% | 99.80% | < 5.00
Cn1nccc1C(=O)Nc1nc2ccc(C#N)cc2n1CC(F)(F)F [Compound 30, O=C(c1ccnn1C)Nc2nc(ccc(C#N)c3)c3n2CC(F)(F)F] | < 5.00 | < 5.00 | < 5.00 | < 5.00 | < 5.00 | < 5.00 | 107% | 107% | < 5.00
Cn1nc(C(F)(F)F)cc1C(=O)Nc1nc2ccc(C#N)cc2n1CC(F)(F)F [Compound 39, O=C(c1cc(C(F)(F)F)nn1C)Nc2nc(ccc(C#N)c3)c3n2CC(F)(F)F] | < 5.00 | < 5.00 | < 5.00 | < 5.00 | < 5.00 | 5.48 | 111% | 111% | < 5.00
COc1ccc(C(=O)Nc2nc3ccc(C#N)cc3n2CC(F)(F)F)cn1 [Compound 43, O=C(c1ccc(OC)nc1)Nc2nc(ccc(C#N)c3)c3n2CC(F)(F)F] | < 5.00 | < 5.00 | < 5.00 | < 5.00 | < 5.00 | < 5.00 | – | 92.20% | < 5.00
N#Cc1ccc2nc(NC(=O)c3ccnc(C(F)(F)F)c3)n(CC(F)(F)F)c2c1 [Compound 44, O=C(c1ccnc(C(F)(F)F)c1)Nc2nc(ccc(C#N)c3)c3n2CC(F)(F)F] | < 5.00 | < 5.00 | < 5.00 | < 5.00 | < 5.00 | 5.57 | 111% | 110.80% | < 5.00
N#Cc1ccc2nc(NC(=O)c3ccc(C(F)(F)F)nc3)n(CC(F)(F)F)c2c1 [Compound 45, O=C(c1ccc(C(F)(F)F)nc1)Nc2nc(ccc(C#N)c3)c3n2CC(F)(F)F] | < 5.00 | < 5.00 | < 5.00 | < 5.00 | < 5.00 | < 5.00 | – | 135% | < 5.00
